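1) Cells in 96-well plates. 2) Compound, 48 h, 5 concentrations. 3) Linear interpolation between surrounding doses. 4) Unreached endpoint = highest concentration. At the GI50, growth is halved.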 Active and inactive are the calls of the source. Cut-off read from the data, not from the text of the source: active = GI50 up to about 1.1 µM and inactive = higher.
Legend:
Assay in all cases: NCI tumour cell line growth inhibition, 48 h
[1] = tested on: A498
[2] = tested on: OVCAR-4
[3] = tested on: MCF7
[4] = tested on: CCRF-CEM
[5] = tested on: KM12
[6] = tested on: K562
[7] = tested on: SF-295
[8] = tested on: MOLT-4
[9] = tested on: EKVX
[10] = tested on: BT-549
[11] = tested on: Hs-578T
[12] = tested on: UACC-62
[13] = tested on: HT-29
[14] = tested on: UO-31
[15] = tested on: HCC 2998
[16] = tested on: OVCAR-8
[17] = tested on: CAKI-1
[18] = tested on: MDA-MB-231
[19] = tested on: A549
[20] = tested on: NCI/ADR-RES
[21] = tested on: TK-10
[22] = tested on: OVCAR-3
[23] = tested on: RXF 393
[24] = tested on: NCI-H460
[25] = tested on: NCI-H226
[26] = tested on: SK-OV-3
[27] = tested on: SF-268
[28] = tested on: ACHN
[29] = tested on: SN12C
[30] = tested on: NCI-H23
[31] = tested on: MDA-N
[32] = tested on: SK-MEL-2
[33] = tested on: NCI-H522
[34] = tested on: SW-620
[35] = tested on: HOP-62
[36] = tested on: SK-MEL-28
[37] = tested on: IGROV-1
[38] = tested on: DU-145
[39] = tested on: COLO 205
[40] = tested on: HCT-15
[41] = tested on: SF-539
[42] = tested on: 786-0
[43] = tested on: OVCAR-5
[44] = tested on: HCT-116
[45] = tested on: HL-60
[46] = tested on: UACC-257
[47] = tested on: SNB-19
[48] = tested on: PC-3
[49] = tested on: SR
[50] = tested on: SK-MEL-5
[51] = tested on: M14
[52] = tested on: T47D
[53] = tested on: Malme-3M
[54] = tested on: SNB-75
[55] = tested on: MDA-MB-435
[56] = tested on: U-251
[57] = tested on: LOX IMVI
[58] = tested on: RPMI-8226
[59] = tested on: HOP-92

CN(COC(=O)C(C)(C)C)c1nc(N(C)COC(=O)C(C)(C)C)nc(N(C)COC(=O)C(C)(C)C)n1
GI50 [1]: > 100 µM (inactive) | GI50 [2]: 82.4 µM (inactive) | GI50 [3]: 33.8 µM (inactive) | GI50 [4]: 16.7 µM (inactive) | GI50 [5]: > 100 µM (inactive) | GI50 [6]: 24 µM (inactive) | GI50 [7]: 94.6 µM (inactive) | GI50 [8]: 24.8 µM (inactive) | GI50 [9]: > 100 µM (inactive) | GI50 [10]: 34.4 µM (inactive) | GI50 [11]: > 100 µM (inactive) | GI50 [12]: > 10 µM (inactive) | GI50 [13]: 34 µM (inactive) | GI50 [14]: > 100 µM (inactive) | GI50 [15]: 34.3 µM (inactive) | GI50 [16]: > 10 µM (inactive) | GI50 [17]: 36.7 µM (inactive) | GI50 [18]: 16.4 µM (inactive) | GI50 [19]: < 0.01 µM (active) | GI50 [20]: 44.3 µM (inactive) | GI50 [21]: > 100 µM (inactive) | GI50 [22]: > 100 µM (inactive) | GI50 [23]: 21 µM (inactive) | GI50 [24]: 60 µM (inactive) | GI50 [25]: > 100 µM (inactive) | GI50 [26]: > 100 µM (inactive) | GI50 [27]: 34.8 µM (inactive) | GI50 [28]: 32.3 µM (inactive) | GI50 [29]: > 100 µM (inactive) | GI50 [30]: > 100 µM (inactive) | GI50 [31]: 25.7 µM (inactive) | GI50 [32]: 61.1 µM (inactive) | GI50 [33]: 77.1 µM (inactive) | GI50 [34]: 22 µM (inactive) | GI50 [35]: > 100 µM (inactive) | GI50 [36]: > 100 µM (inactive) | GI50 [37]: > 100 µM (inactive) | GI50 [38]: 22.4 µM (inactive) | GI50 [39]: 16 µM (inactive) | GI50 [40]: 21 µM | GI50 [41]: > 100 µM (inactive) | GI50 [42]: 28.6 µM (inactive) | GI50 [43]: > 100 µM (inactive) | GI50 [44]: 18.8 µM (inactive) | GI50 [45]: 29.2 µM (inactive) | GI50 [46]: 98.2 µM (inactive) | GI50 [47]: > 100 µM (inactive) | GI50 [48]: 77.8 µM (inactive) | GI50 [49]: 29.1 µM (inactive) | GI50 [50]: 33.2 µM (inactive) | GI50 [51]: 19 µM (inactive) | GI50 [52]: 56.6 µM (inactive) | GI50 [53]: 12.7 µM (inactive) | GI50 [54]: 50.2 µM (inactive)

COC1CC(=O)C2C(=O)N(c3ccccc3)C(=O)C23C(C(=O)c2ccccc2)=C(C)NC13O (stereo not given)
GI50 [1]: 17.2 µM (inactive) | GI50 [2]: 4.92 µM (inactive) | GI50 [3]: 4.06 µM (inactive) | GI50 [4]: 3.69 µM (inactive) | GI50 [5]: 18 µM (inactive) | GI50 [55]: 14.5 µM (inactive) | GI50 [6]: < 0.01 µM (active) | GI50 [7]: 32.4 µM (inactive) | GI50 [9]: 17.4 µM (inactive) | GI50 [10]: 23.3 µM (inactive) | GI50 [11]: 22.2 µM (inactive) | GI50 [56]: 17.3 µM (inactive) | GI50 [12]: 16.4 µM (inactive) | GI50 [13]: 16.9 µM (inactive) | GI50 [14]: 11.4 µM (inactive) | GI50 [16]: 21.1 µM (inactive) | GI50 [17]: 4.6 µM (inactive) | GI50 [18]: 17.1 µM (inactive) | GI50 [19]: 34.4 µM (inactive) | GI50 [20]: 20.9 µM (inactive) | GI50 [21]: 6.32 µM (inactive) | GI50 [22]: 2.12 µM (inactive) | GI50 [24]: 21.7 µM (inactive) | GI50 [57]: 13.4 µM (inactive) | GI50 [26]: 19.9 µM (inactive) | GI50 [58]: 5.08 µM (inactive) | GI50 [27]: 3.84 µM (inactive) | GI50 [28]: 12.9 µM (inactive) | GI50 [29]: 16.6 µM (inactive) | GI50 [30]: 15.3 µM (inactive) | GI50 [59]: < 0.01 µM (active) | GI50 [31]: 18.7 µM (inactive) | GI50 [32]: 17.1 µM (inactive) | GI50 [33]: 1.91 µM (inactive) | GI50 [34]: 5.02 µM (inactive) | GI50 [35]: 20.2 µM (inactive) | GI50 [36]: 11 µM (inactive) | GI50 [37]: 10.4 µM (inactive) | GI50 [38]: 13.5 µM (inactive) | GI50 [39]: 12.3 µM (inactive) | GI50 [40]: 8.49 µM | GI50 [41]: 5.32 µM (inactive) | GI50 [42]: 2.12 µM (inactive) | GI50 [43]: 18.9 µM (inactive) | GI50 [44]: 9.2 µM (inactive) | GI50 [46]: 22.9 µM (inactive) | GI50 [47]: 21.4 µM (inactive) | GI50 [48]: 10.4 µM (inactive) | GI50 [50]: 18.6 µM (inactive) | GI50 [51]: 15.5 µM (inactive) | GI50 [52]: 2.92 µM (inactive) | GI50 [53]: 1.43 µM (inactive)

O=C(O)c1cccc(CN2CCCCC2)c1
GI50 [1]: > 100 µM (inactive) | GI50 [2]: > 100 µM (inactive) | GI50 [3]: > 100 µM (inactive) | GI50 [4]: > 100 µM (inactive) | GI50 [5]: > 100 µM (inactive) | GI50 [55]: > 100 µM (inactive) | GI50 [6]: > 100 µM (inactive) | GI50 [7]: > 100 µM (inactive) | GI50 [8]: > 100 µM (inactive) | GI50 [9]: > 100 µM (inactive) | GI50 [10]: > 100 µM (inactive) | GI50 [11]: > 100 µM (inactive) | GI50 [56]: > 100 µM (inactive) | GI50 [12]: > 100 µM (inactive) | GI50 [13]: > 100 µM (inactive) | GI50 [14]: > 100 µM (inactive) | GI50 [15]: > 100 µM (inactive) | GI50 [16]: > 100 µM (inactive) | GI50 [17]: > 100 µM (inactive) | GI50 [18]: > 100 µM (inactive) | GI50 [19]: > 100 µM (inactive) | GI50 [20]: > 100 µM (inactive) | GI50 [21]: > 100 µM (inactive) | GI50 [22]: > 100 µM (inactive) | GI50 [23]: > 100 µM (inactive) | GI50 [24]: > 100 µM (inactive) | GI50 [25]: > 100 µM (inactive) | GI50 [57]: > 100 µM (inactive) | GI50 [26]: > 100 µM (inactive) | GI50 [58]: > 100 µM (inactive) | GI50 [27]: > 100 µM (inactive) | GI50 [28]: > 100 µM (inactive) | GI50 [29]: > 100 µM (inactive) | GI50 [30]: > 100 µM (inactive) | GI50 [31]: > 100 µM (inactive) | GI50 [32]: > 100 µM (inactive) | GI50 [33]: > 100 µM (inactive) | GI50 [34]: > 100 µM (inactive) | GI50 [35]: > 100 µM (inactive) | GI50 [36]: > 100 µM (inactive) | GI50 [37]: > 100 µM (inactive) | GI50 [38]: > 100 µM (inactive) | GI50 [39]: > 100 µM (inactive) | GI50 [40]: > 100 µM | GI50 [42]: > 100 µM (inactive) | GI50 [43]: > 100 µM (inactive) | GI50 [44]: > 100 µM (inactive) | GI50 [46]: > 100 µM (inactive) | GI50 [47]: > 100 µM (inactive) | GI50 [48]: > 100 µM (inactive) | GI50 [50]: > 100 µM (inactive) | GI50 [51]: > 100 µM (inactive) | GI50 [52]: > 100 µM (inactive) | GI50 [53]: > 100 µM (inactive)

From ChEMBL document CHEMBL1201862, “PubChem BioAssay data set” (2004)
